Drawing on PubChem BioAssay AID2296 (NMMLSC, 2010), this text covers Ki and EC50 for twelve compounds.

This assay addresses Regulator of G-protein signaling 7 (Homo sapiens) (UniProt P49802). The assay is described as follows: RGS7-Galphao binding modulators, SAR follow-up, biochemical, multiplexed bead flow cytometry, SAR compounds (AID 2296). The following applies: bead-based flow cytometry, AF488-Galphao binding to RGS7; for Ki: measured here: Ki from EC50 fit.

Sequence of Regulator of G-protein signaling 7 (Homo sapiens) (P49802 whole entry, looked up): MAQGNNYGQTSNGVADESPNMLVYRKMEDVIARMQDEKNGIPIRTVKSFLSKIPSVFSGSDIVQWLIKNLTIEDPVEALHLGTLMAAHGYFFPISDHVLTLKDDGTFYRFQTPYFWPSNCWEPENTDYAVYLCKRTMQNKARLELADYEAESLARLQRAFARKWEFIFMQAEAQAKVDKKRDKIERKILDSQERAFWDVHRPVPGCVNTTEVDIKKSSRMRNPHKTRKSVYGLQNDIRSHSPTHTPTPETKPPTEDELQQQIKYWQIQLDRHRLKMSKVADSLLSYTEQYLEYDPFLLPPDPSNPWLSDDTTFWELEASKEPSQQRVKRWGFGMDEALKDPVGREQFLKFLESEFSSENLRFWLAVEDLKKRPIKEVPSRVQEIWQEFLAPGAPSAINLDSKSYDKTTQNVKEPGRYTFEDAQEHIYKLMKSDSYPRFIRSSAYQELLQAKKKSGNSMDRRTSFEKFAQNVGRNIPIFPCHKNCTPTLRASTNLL

Compound `CCN(CC)S(=O)(=O)c1cccc(C(=O)N/N=C/c2ccc(O)c(O)c2O)c1` displayed a Ki of 320 nM. In other words, the sub-micromolar range.

The compound `Nc1c(C(=O)NCC2CCCO2)sc2nc3c(c(-c4ccco4)c12)CC/C3=C/c1ccco1` (stereo not drawn) came in with a Ki of 120 nM.

Turning to `CN1CCN(C2=C(Cl)C(=O)C(c3cnc(N4CCCCC4)s3)=C(Cl)C2=O)CC1`, the Ki worked out at 70 nM. Against the preceding compound, the Ki is about 1.7-fold lower.

In the case of `COc1ccc(C2=CC(=O)C=CC2=O)cc1`, the Ki worked out at 300 nM. Compared with the last compound, the Ki is about 4.3-fold higher.

In the case of `CCC(=O)NC(c1ccc(C)cc1)c1cc([N+](=O)[O-])c2cccnc2c1O` (stereo not drawn), the Ki turned out to be 3750 nM. This Ki is about 12-fold higher than that of the compound before.

On to `O=C1C(Cl)=C(N2CCCCC2)C(=O)C(Cl)=C1c1cnc(N2CCCCC2)s1`, for which the Ki turned out to be 130 nM.

On to `O=C(Cc1csc(N2CCOCC2)n1)N/N=C/c1ccc(O)c(O)c1O`, for which the Ki was 360 nM.

`CCN=c1scc(C)n1/N=C/c1ccc(O)c(O)c1O` registered a Ki of 380 nM.

The compound `Cc1[nH]n(-c2ccccc2)c(=S)c1C=NCCCN=Cc1c(C)[nH]n(-c2ccccc2)c1=S` displayed a Ki of 1870 nM.

`CC1(C)OC(=O)C(=Cc2ccc(-c3ccc(S(N)(=O)=O)cc3)o2)C(=O)O1` yielded a Ki of 1600 nM.

In the case of `NS(=O)(=O)c1ccc(N/N=C/c2ccc(O)c(O)c2O)c([N+](=O)[O-])c1`, the half-maximal effective concentration (EC50) was 141 nM and the Ki worked out at 120 nM.

For the compound `CN=c1scc(C)n1/N=C/c1ccc(O)c(O)c1O`, the Ki was 210 nM.
